Values of other authors in paper PMC2967214 (Journal of the American Chemical Society, 2010).

What was measured:
[1] = 25°C, 20 MHz; cited from earlier work
[2] = cited from earlier work

Row | Compound | r1 relaxivity [1] | thermodynamic and kinetic stability of Gd3+ complex [2]
1 | Gadomer 17 | 16.5 mM⁻¹ s⁻¹ | –
2 | O=C(O)CN1CCN(CC(=O)O)CCN(CC(=O)O)CCN(CC(=O)O)CC1 [DOTA] | – | high thermodynamic and kinetic stability
